This test has as its target T1, N-type calcium channel (Homo sapiens, UniProt Q00975).
T1 construct: endogenous in cells
As to the kind of experiment: Determination of inhibitory activity on N-type calcium channel (Fura-2 fluorescence, KCl depolarization, with nifedipine). Type of test: cell-based. As to conditions: compound at final concentration of 3 μM; depolarized with 80 mM potassium chloride; in presence of nifedipine; read-out: Inhibitory effect on calcium flow (%). As to the method:
Determination of Inhibitory Activity on N-type Calcium Channel
Cell line was differentiated according to the method described in FEBS Letters, 235, 178-182, 1988. The cell was loaded with fluorescent reagent, Fura-2·AM (at the final concentration of 10 μM), at 37° C. for 30 minutes and suspended in Krebs-buffer containing HEPES (25 mM) to obtain the cell suspension. The obtained cell suspension was incubated in the presence or absence of the compounds of the present invention with nifedipine for 5 minutes. The cell was depolarized by adding potassium chloride solution (at the final concentration of 80 mM) thereto and then a fluorescence intensity at the emission wavelength of 500 nm excited by the UV of 340 nm and 380 nm alternately was measured using the intracellular calcium analyzer (Nippon Bunko Co., CAF-110). The inhibitory activity of the compound of the present invention (at the final concentration of 3 μM) on calcium influx into the cell was calculated from the difference in changing the fluorescence intensity at peak (ΔR) according to the following equation.

Molecules are shown by their SMILES.

T1 sequence (Q00975 whole entry): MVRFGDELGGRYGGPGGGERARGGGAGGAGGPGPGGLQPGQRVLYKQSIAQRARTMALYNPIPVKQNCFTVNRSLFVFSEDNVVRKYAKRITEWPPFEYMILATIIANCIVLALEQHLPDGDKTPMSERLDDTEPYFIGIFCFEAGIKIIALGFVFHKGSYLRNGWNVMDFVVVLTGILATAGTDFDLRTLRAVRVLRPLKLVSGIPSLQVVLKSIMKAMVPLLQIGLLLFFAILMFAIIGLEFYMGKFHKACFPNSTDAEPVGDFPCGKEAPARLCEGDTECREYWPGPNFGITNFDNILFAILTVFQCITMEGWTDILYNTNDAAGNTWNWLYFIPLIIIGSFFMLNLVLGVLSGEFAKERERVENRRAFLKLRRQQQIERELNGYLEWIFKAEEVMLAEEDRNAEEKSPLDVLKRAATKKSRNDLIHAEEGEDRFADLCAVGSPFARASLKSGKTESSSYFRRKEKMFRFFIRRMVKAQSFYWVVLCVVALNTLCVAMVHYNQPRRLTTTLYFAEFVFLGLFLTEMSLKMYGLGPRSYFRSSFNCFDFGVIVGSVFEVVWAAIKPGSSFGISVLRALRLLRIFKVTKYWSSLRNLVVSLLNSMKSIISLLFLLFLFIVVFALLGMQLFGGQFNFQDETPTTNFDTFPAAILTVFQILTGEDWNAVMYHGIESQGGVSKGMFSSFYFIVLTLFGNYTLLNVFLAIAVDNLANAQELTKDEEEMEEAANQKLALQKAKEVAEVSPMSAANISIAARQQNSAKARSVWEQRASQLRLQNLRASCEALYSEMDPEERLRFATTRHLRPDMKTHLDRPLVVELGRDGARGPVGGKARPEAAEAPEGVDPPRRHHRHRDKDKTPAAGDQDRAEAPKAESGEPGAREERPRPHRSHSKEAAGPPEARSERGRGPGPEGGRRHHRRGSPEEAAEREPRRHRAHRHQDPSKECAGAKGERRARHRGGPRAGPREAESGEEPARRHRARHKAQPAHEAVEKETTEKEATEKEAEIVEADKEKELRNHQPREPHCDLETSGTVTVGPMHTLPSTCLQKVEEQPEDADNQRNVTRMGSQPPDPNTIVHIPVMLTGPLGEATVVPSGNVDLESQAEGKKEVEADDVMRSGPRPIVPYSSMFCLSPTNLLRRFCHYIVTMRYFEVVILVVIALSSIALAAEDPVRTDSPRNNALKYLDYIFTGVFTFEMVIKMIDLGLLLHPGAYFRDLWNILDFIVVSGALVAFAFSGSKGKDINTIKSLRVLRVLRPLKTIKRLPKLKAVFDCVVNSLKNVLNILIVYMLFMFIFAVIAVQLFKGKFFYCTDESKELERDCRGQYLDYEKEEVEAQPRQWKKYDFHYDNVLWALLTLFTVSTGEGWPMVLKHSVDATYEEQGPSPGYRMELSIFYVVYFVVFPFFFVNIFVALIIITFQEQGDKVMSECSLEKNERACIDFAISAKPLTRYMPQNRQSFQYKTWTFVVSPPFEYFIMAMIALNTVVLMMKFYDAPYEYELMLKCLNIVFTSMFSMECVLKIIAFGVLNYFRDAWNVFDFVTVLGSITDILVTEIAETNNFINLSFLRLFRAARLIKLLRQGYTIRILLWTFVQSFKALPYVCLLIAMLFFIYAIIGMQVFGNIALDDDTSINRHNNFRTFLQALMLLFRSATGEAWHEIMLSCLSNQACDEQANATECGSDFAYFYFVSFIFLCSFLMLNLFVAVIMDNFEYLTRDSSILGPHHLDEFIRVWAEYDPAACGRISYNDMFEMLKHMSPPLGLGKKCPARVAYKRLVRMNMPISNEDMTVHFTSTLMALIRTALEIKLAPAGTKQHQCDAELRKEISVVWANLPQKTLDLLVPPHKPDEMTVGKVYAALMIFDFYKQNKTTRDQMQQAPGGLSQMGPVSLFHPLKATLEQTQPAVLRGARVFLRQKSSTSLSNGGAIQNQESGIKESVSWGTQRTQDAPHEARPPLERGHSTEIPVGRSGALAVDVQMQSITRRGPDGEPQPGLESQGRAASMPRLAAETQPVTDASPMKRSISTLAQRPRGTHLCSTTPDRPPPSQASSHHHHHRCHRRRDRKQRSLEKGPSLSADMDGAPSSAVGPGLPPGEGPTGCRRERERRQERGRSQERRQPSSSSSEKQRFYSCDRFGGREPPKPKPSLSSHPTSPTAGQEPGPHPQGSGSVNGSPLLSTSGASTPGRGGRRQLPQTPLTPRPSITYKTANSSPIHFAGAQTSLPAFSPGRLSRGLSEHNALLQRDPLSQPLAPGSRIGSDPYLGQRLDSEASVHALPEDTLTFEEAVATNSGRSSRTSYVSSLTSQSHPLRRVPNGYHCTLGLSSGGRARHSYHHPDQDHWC

Take `CC(C)(C)OC(=O)N1CSC[C@H]1C(=O)N[C@@H](CSCC1CCCCC1)C(=O)NC1CCN(Cc2ccccc2)CC1` [compound 2, (2R)-N-(1-benzylpiperidin-4-yl)-3-cyclohexylmethylthio-2-((4R)-3-t-butoxycarbonylthiazolidin-4-ylcarbonylamino)propanamide]: the inhibition at 3 µM is 95%.

For the origin of these results see US7351721B2, “Amino acid derivatives and pharmaceutical composition comprising, as active ingredients, them” (Ono Pharmaceutical Co., Ltd., priority 1999, dated 2008).
